Measured values from ChEMBL document CHEMBL3991601, “The target landscape of clinical kinase drugs” (Science, 2017).
Active and inactive are the calls of the source.

Tests used:
[1] = molecular target: TRAF2 and NCK-interacting protein kinase (Homo sapiens, UniProt Q9UKE5)
[2] = molecular target: DNA topoisomerase 2-alpha (Homo sapiens, UniProt P11388)
dCTP pyrophosphatase 1 = molecular target: T1, dCTP pyrophosphatase 1 (Homo sapiens, UniProt Q9H773)
T1 sequence (Q9H773 whole entry): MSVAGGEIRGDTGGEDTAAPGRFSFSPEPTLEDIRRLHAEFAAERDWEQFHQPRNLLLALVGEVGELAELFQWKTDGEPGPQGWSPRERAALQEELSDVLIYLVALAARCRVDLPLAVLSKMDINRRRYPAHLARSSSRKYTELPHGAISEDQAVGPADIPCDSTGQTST

[3] = molecular target: Mitogen-activated protein kinase 11 (Homo sapiens, UniProt Q15759)
[4] = molecular target: Cyclin-dependent kinase 4 (Homo sapiens, UniProt P11802)
Chain of Cyclin-dependent kinase 4 (P11802 whole entry): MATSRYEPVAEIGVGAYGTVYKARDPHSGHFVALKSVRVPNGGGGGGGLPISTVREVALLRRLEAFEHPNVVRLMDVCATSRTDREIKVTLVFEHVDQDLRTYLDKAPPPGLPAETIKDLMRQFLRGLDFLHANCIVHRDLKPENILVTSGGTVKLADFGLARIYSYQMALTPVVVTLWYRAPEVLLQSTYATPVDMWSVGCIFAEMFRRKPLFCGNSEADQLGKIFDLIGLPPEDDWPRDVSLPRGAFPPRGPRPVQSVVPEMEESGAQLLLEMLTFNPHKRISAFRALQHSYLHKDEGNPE

[5] = molecular target: Ribosomal protein S6 kinase alpha-6 (Homo sapiens, UniProt Q9UK32)
[6] = molecular target: Serine/threonine-protein kinase/endoribonuclease IRE1 (Homo sapiens, UniProt O75460)
[7] = molecular target: T2, Mitogen-activated protein kinase kinase kinase 5 (Homo sapiens, UniProt Q99683)
T2 sequence (Q99683 whole entry): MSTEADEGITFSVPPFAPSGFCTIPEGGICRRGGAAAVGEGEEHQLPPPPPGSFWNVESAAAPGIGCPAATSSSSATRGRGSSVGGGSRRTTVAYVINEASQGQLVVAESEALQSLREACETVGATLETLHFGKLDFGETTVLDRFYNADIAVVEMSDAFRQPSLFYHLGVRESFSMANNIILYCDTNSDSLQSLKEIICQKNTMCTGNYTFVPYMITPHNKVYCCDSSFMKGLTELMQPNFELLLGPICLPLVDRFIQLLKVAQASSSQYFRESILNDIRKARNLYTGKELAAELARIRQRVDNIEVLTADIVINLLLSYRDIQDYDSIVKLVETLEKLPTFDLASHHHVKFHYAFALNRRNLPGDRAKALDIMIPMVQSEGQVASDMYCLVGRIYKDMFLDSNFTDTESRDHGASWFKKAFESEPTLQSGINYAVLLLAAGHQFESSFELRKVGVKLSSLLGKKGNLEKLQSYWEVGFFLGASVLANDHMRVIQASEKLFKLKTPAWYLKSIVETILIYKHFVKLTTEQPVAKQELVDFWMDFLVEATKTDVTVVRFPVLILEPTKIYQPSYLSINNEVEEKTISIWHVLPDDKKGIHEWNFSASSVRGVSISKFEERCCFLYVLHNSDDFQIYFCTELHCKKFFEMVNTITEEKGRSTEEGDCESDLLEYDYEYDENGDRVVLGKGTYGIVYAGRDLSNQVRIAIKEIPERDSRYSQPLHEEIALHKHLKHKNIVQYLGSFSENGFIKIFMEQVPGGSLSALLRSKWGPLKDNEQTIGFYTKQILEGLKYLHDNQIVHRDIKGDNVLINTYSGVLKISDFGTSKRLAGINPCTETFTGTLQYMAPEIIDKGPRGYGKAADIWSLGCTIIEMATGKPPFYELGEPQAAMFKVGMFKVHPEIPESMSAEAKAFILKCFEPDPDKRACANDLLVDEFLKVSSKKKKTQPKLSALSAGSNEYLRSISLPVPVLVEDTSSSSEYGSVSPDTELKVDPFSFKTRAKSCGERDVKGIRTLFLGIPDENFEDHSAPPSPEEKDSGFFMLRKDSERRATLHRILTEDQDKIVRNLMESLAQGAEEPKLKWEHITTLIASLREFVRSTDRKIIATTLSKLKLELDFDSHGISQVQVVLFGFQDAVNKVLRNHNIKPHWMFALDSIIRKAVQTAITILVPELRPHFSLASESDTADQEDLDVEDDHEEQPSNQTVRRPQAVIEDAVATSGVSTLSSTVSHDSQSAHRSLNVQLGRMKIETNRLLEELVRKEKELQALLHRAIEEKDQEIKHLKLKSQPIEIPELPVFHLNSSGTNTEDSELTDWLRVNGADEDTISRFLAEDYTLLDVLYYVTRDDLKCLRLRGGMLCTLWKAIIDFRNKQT

Actin-related protein 2 = Actin-related protein 2 (Homo sapiens, UniProt P61160)
[8] = molecular target: Tyrosine-protein kinase Lck (Homo sapiens, UniProt P06239)
Chain of Tyrosine-protein kinase Lck (P06239 whole entry): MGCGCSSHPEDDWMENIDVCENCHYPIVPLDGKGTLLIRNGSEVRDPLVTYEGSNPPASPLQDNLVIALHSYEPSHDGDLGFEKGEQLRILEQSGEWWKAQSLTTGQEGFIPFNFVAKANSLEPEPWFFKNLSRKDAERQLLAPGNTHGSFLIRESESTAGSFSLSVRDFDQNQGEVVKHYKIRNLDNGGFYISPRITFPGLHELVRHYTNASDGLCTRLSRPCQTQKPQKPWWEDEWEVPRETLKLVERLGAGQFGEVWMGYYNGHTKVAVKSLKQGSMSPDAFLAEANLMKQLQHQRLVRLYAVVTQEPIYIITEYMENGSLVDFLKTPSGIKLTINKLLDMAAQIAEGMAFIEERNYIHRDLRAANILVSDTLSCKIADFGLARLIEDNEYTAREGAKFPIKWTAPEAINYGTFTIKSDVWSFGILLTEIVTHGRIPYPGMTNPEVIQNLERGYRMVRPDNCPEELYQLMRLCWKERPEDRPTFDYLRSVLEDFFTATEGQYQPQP

[9] = molecular target: Tyrosine-protein kinase FRK (Homo sapiens, UniProt P42685)
Chain of Tyrosine-protein kinase FRK (P42685 whole entry): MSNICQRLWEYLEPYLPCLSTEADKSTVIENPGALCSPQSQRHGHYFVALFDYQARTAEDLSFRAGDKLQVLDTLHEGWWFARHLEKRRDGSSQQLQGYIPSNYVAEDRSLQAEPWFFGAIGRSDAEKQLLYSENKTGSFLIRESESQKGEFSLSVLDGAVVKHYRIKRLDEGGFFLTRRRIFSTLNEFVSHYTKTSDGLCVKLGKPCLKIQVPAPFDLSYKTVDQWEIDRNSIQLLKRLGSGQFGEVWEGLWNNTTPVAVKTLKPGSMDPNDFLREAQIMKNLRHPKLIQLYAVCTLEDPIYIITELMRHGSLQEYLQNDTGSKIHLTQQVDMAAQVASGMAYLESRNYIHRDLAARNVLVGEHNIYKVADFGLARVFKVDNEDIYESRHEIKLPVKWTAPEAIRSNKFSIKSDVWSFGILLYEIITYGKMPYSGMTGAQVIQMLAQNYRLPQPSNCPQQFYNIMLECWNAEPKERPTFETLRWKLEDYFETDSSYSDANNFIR

[10] = molecular target: Serine/threonine-protein kinase MRCK alpha (Homo sapiens, UniProt Q5VT25)
[11] = molecular target: Calcium/calmodulin-dependent protein kinase kinase 2 (Homo sapiens, UniProt Q96RR4)
Chain of Calcium/calmodulin-dependent protein kinase kinase 2 (Q96RR4 whole entry): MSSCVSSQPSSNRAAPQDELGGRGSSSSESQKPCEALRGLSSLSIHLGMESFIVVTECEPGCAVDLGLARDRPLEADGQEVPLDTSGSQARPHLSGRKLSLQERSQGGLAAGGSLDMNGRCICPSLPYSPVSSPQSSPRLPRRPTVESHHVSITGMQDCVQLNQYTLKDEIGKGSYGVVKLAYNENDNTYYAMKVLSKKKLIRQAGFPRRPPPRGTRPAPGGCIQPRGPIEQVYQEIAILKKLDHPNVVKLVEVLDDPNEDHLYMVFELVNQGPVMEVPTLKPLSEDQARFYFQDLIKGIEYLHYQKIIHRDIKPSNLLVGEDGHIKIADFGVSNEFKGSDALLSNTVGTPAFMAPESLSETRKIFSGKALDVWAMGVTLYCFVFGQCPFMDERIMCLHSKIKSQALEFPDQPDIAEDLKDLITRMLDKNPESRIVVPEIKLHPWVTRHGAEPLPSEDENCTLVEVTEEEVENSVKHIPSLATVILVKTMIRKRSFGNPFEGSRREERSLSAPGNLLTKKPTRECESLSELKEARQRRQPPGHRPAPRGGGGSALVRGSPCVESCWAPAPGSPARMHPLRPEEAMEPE

[12] = molecular target: T3, Ras-related protein Rab-10 (Homo sapiens, UniProt P61026)
T3 sequence (P61026 whole entry): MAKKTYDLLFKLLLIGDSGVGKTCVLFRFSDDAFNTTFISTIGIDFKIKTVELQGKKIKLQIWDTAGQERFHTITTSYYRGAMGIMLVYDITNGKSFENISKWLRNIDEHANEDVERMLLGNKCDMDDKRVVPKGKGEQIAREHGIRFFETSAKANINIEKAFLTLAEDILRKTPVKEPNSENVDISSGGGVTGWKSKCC
Also: in the data inactive means no Kd found up to 30 µM.

Chain of TRAF2 and NCK-interacting protein kinase (Q9UKE5 whole entry): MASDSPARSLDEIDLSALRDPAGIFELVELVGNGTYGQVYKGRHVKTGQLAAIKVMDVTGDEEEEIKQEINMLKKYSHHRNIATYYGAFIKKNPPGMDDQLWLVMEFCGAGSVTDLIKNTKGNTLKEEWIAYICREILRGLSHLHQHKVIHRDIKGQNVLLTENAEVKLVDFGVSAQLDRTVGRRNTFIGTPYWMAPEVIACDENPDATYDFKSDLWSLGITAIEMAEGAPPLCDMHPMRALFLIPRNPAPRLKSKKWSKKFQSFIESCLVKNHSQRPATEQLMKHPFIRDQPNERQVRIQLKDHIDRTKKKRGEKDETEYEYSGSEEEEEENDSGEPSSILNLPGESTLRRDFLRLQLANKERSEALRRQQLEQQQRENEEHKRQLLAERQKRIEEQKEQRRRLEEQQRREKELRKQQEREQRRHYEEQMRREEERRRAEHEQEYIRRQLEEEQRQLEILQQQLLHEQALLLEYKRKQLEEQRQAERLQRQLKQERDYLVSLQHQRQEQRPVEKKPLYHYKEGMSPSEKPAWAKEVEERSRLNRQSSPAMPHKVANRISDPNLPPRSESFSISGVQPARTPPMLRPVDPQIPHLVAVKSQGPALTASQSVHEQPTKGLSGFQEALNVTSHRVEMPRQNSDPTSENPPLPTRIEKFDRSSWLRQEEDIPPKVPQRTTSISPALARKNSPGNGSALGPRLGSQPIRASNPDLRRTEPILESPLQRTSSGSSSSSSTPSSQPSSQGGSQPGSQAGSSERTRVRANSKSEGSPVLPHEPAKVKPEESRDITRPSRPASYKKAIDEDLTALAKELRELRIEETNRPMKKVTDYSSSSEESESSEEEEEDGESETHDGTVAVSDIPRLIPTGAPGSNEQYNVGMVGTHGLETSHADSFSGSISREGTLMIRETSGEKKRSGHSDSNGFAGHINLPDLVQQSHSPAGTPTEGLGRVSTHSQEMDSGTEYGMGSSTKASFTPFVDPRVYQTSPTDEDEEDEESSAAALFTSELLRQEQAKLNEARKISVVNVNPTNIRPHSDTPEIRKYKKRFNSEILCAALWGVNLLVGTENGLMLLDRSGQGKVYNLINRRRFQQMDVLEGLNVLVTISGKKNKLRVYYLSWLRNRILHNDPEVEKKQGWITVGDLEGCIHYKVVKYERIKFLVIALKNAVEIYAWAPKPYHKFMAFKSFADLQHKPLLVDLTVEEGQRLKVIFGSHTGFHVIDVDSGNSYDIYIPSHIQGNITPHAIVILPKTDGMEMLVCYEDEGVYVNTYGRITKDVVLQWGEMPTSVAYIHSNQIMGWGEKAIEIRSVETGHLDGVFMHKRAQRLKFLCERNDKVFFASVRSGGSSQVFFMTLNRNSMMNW
Chain of DNA topoisomerase 2-alpha (P11388 whole entry): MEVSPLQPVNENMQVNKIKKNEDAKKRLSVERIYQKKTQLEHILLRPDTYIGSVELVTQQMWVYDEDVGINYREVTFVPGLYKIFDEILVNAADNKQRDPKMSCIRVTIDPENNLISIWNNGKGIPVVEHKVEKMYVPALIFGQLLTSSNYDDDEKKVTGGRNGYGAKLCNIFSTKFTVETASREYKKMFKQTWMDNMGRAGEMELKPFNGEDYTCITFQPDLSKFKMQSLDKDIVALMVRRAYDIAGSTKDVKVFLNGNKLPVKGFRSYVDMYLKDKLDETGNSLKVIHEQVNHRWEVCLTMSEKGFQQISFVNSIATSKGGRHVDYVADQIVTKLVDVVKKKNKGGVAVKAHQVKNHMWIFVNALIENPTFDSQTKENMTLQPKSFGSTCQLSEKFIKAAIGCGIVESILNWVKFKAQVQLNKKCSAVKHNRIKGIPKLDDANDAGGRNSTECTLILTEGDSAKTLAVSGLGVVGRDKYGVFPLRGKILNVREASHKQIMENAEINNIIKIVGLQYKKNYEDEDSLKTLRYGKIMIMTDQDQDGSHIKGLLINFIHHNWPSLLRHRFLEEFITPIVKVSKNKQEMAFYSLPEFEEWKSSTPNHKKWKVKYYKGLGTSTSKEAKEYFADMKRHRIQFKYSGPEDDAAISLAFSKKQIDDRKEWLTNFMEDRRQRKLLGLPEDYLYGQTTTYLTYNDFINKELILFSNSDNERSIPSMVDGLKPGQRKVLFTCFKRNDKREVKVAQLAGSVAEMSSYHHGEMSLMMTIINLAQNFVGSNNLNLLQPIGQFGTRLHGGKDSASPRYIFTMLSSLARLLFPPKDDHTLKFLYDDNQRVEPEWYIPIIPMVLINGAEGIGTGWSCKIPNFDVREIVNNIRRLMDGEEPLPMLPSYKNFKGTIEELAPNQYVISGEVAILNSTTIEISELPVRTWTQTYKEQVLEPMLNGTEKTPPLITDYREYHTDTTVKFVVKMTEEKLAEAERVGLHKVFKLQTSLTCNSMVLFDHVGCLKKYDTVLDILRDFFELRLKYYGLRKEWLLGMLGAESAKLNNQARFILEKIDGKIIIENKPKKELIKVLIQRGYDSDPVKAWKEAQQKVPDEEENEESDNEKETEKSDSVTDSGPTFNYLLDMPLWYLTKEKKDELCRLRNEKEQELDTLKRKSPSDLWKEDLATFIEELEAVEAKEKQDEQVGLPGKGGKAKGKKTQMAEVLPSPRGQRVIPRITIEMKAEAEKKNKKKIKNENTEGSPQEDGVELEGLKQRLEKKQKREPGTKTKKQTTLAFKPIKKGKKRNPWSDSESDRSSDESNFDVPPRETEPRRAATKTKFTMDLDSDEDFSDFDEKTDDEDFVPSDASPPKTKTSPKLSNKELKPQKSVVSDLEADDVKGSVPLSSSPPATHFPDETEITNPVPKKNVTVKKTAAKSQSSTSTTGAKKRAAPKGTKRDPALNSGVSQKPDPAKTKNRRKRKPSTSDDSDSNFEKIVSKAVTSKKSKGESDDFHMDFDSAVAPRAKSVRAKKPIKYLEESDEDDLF

Kd [1]	Kd [2]	Kd (dCTP pyrophosphatase 1)	Kd [3]	Kd [4]	Kd [5]	Kd [6]	Kd [7]	Kd (Actin-related protein 2)	Kd [8]	Kd [9]	Kd [10]	Kd [11]	Kd [12]	Compound
> 30 µM (inactive)	> 30 µM (inactive)	> 30 µM (inactive)	> 30 µM (inactive)	> 30 µM (inactive)	> 30 µM (inactive)	> 30 µM (inactive)	> 30 µM (inactive)	> 30 µM (inactive)	> 30 µM (inactive)	> 30 µM (inactive)	> 30 µM (inactive)	> 30 µM (inactive)	> 30 µM (inactive)	COc1cc(OC)c(/C=C/S(=O)(=O)Cc2ccc(OC)c(NCC(=O)O)c2)c(OC)c1 [RIGOSERTIB]
> 30 µM (inactive)	> 30 µM (inactive)	> 30 µM (inactive)	> 30 µM (inactive)	> 30 µM (inactive)	> 30 µM (inactive)	> 30 µM (inactive)	> 30 µM (inactive)	> 30 µM (inactive)	> 30 µM (inactive)	> 30 µM (inactive)	> 30 µM (inactive)	> 30 µM (inactive)	> 30 µM (inactive)	C[C@@H](c1ccc2nccn2c1)n1nnc2ncc(-c3cnn(C)c3)nc21 [SAVOLITINIB]
> 30 µM (inactive)	> 30 µM (inactive)	> 30 µM (inactive)	> 30 µM (inactive)	> 30 µM (inactive)	> 30 µM (inactive)	> 30 µM (inactive)	> 30 µM (inactive)	> 30 µM (inactive)	> 30 µM (inactive)	> 30 µM (inactive)	> 30 µM (inactive)	0.195 µM (active)	> 30 µM (inactive)	CC[C@@H]1C(=O)N(C)c2cnc(Nc3ccc(C(=O)N[C@H]4CC[C@H](N5CCN(CC6CC6)CC5)CC4)cc3OC)nc2N1C(C)C [VOLASERTIB]
> 30 µM (inactive)	> 30 µM (inactive)	> 30 µM (inactive)	> 30 µM (inactive)	> 30 µM (inactive)	> 30 µM (inactive)	> 30 µM (inactive)	> 30 µM (inactive)	> 30 µM (inactive)	> 30 µM (inactive)	> 30 µM (inactive)	> 30 µM (inactive)	> 30 µM (inactive)	> 30 µM (inactive)	CC(C)Nc1cc(-c2c[nH]c(C(=O)N[C@H](CO)c3cccc(Cl)c3)c2)c(Cl)cn1 [ULIXERTINIB]

The remaining lines, values behind:

Compound	Kd [1]	Kd [2]	Kd (dCTP pyrophosphatase 1)	Kd [3]	Kd [4]	Kd [5]	Kd [6]	Kd [7]	Kd (Actin-related protein 2)	Kd [8]	Kd [9]	Kd [10]	Kd [11]	Kd [12]
CC[C@H](Nc1ncnc2[nH]cnc12)c1nc2cccc(F)c2c(=O)n1-c1ccccc1 [IDELALISIB]	> 30 µM (inactive)	> 30 µM (inactive)	> 30 µM (inactive)	> 30 µM (inactive)	> 30 µM (inactive)	> 30 µM (inactive)	> 30 µM (inactive)	> 30 µM (inactive)	> 30 µM (inactive)	> 30 µM (inactive)	> 30 µM (inactive)	> 30 µM (inactive)	> 30 µM (inactive)	> 30 µM (inactive)
COC(=O)N[C@@H](C)CNc1nccc(-c2cn(C(C)C)nc2-c2cc(Cl)cc(NS(C)(=O)=O)c2F)n1 [ENCORAFENIB]	> 30 µM (inactive)	> 30 µM (inactive)	> 30 µM (inactive)	> 30 µM (inactive)	0.112 µM (active)	> 30 µM (inactive)	> 30 µM (inactive)	> 30 µM (inactive)	> 30 µM (inactive)	> 30 µM (inactive)	> 30 µM (inactive)	> 30 µM (inactive)	> 30 µM (inactive)	> 30 µM (inactive)
Cn1cc(-c2ccc3nnc(C(F)(F)c4ccc5ncccc5c4)n3n2)cn1 [JNJ-38877605]	> 30 µM (inactive)	> 30 µM (inactive)	> 30 µM (inactive)	> 30 µM (inactive)	> 30 µM (inactive)	> 30 µM (inactive)	> 30 µM (inactive)	> 30 µM (inactive)	> 30 µM (inactive)	> 30 µM (inactive)	> 30 µM (inactive)	> 30 µM (inactive)	> 30 µM (inactive)	> 30 µM (inactive)
COCCNCc1ccc(-c2cc3nccc(Oc4ccc(NC(=S)NC(=O)Cc5ccc(F)cc5)cc4F)c3s2)nc1 [GLESATINIB]	> 30 µM (inactive)	> 30 µM (inactive)	> 30 µM (inactive)	> 30 µM (inactive)	> 30 µM (inactive)	> 30 µM (inactive)	> 30 µM (inactive)	> 30 µM (inactive)	> 30 µM (inactive)	0.092 µM (active)	1.1 µM (active)	> 30 µM (inactive)	> 30 µM (inactive)	> 30 µM (inactive)
N[C@@H]1CCCN(c2c(/C=C3\SC(=O)NC3=O)cccc2-c2ccccc2)C1	> 30 µM (inactive)	> 30 µM (inactive)	> 30 µM (inactive)	> 30 µM (inactive)	> 30 µM (inactive)	> 30 µM (inactive)	> 30 µM (inactive)	> 30 µM (inactive)	> 30 µM (inactive)	> 30 µM (inactive)	> 30 µM (inactive)	> 30 µM (inactive)	> 30 µM (inactive)	> 30 µM (inactive)
Cn1ncc(Cl)c1-c1cc(C(=O)N[C@H](CN)Cc2cccc(F)c2)sc1Cl [AFURESERTIB]	> 30 µM (inactive)	> 30 µM (inactive)	> 30 µM (inactive)	> 30 µM (inactive)	> 30 µM (inactive)	> 30 µM (inactive)	> 30 µM (inactive)	> 30 µM (inactive)	> 30 µM (inactive)	> 30 µM (inactive)	> 30 µM (inactive)	> 30 µM (inactive)	> 30 µM (inactive)	> 30 µM (inactive)
Cc1cc(-c2cc(O)ccc2Cl)cc2nnc(Nc3ccc(OCCN4CCCC4)cc3)nc12	> 30 µM (inactive)	> 30 µM (inactive)	> 30 µM (inactive)	> 30 µM (inactive)	> 30 µM (inactive)	> 30 µM (inactive)	> 30 µM (inactive)	> 30 µM (inactive)	> 30 µM (inactive)	0.002 µM (active)	0.001 µM (active)	> 30 µM (inactive)	> 30 µM (inactive)	> 30 µM (inactive)
CO[C@H]1C[C@@H]2CC[C@@H](C)[C@@](O)(O2)C(=O)C(=O)N2CCCC[C@H]2C(=O)O[C@H]([C@H](C)C[C@@H]2CC[C@@H](OCCO)[C@H](OC)C2)CC(=O)[C@H](C)/C=C(\C)[C@@H](O)[C@@H](OC)C(=O)[C@H](C)C[C@H](C)/C=C/C=C/C=C/1C [EVEROLIMUS]	> 30 µM (inactive)	> 30 µM (inactive)	> 30 µM (inactive)	> 30 µM (inactive)	> 30 µM (inactive)	> 30 µM (inactive)	> 30 µM (inactive)	> 30 µM (inactive)	> 30 µM (inactive)	> 30 µM (inactive)	> 30 µM (inactive)	> 30 µM (inactive)	> 30 µM (inactive)	> 30 µM (inactive)
